# Measurements taken from US11253525B2, “Inhibitors of indoleamine 2,3-dioxygenase and methods of their use” (BRISTOL-MYERS SQUIBB COMPANY, priority 2018, dated 2022).
# pIC50: −log10 of the molar value.
# Target: T1, indoleamine 2,3-dioxygenase (IDO) (Homo sapiens, UniProt P14902)
# T1 construct: replaced with media containing IFNγ (#285-IF/CF, R&D Systems) at a final concentration of 25 ng/mL; endogenous in cells; host or cells: HeLa (ATCC CCL-2), IFN-gamma stimulated
# Assay: HeLa cell-based indoleamine 2,3-dioxygenase (IDO) assay, kynurenine production
# Conditions: HeLa cells, IFNγ 25 ng/mL, 48 hour incubation; read-out: IDO Hela IC50
# Experimental: Assessment of Inhibitor Activity in HeLa Cell-Based Indoleamine 23-Dioxygenase (IDO) Assay
# Cells were maintained in a humidified incubator at 37° C. in 5% CO2.
# IDO activity was assessed as a function of kynurenine production as follows: HeLa cells were seeded in a 96-well culture plate at a density of 5,000 cells/well and allowed to equilibrate overnight. […] A serial dilution of each test compound was added to the cells in a total volume of 200 μL of culture medium. After a further 48 hour incubation, 170 μL of supernatant was transferred from each well to a fresh 96-well plate. 12.1 μL of 6.1N trichloroacetic acid (#T0699, Sigma-Aldrich) was added to each well and mixed, followed by incubation at 65° C. for 20 minutes to hydrolyze N-formylkynurenine, the product of indoleamine 2,3-dioxygenase, to kynurenine. The reaction mixture was then centrifuged for 10 mins at 500×g to sediment the precipitate. 100 μL of the supernatant was transferred from each well to a fresh 96-well plate. […] Kynurenine concentrations were determined by measuring absorbance at 480 nm and calibrating against an L-kynurenine (#K8625, Sigma-Aldrich) standard curve using a SPECTRAMAX® M2e microplate reader (Molecular Devices). The percentage activity at each inhibitor concentration was determined and IC50 values assessed using nonlinear regression.
# T1 sequence (P14902 whole entry): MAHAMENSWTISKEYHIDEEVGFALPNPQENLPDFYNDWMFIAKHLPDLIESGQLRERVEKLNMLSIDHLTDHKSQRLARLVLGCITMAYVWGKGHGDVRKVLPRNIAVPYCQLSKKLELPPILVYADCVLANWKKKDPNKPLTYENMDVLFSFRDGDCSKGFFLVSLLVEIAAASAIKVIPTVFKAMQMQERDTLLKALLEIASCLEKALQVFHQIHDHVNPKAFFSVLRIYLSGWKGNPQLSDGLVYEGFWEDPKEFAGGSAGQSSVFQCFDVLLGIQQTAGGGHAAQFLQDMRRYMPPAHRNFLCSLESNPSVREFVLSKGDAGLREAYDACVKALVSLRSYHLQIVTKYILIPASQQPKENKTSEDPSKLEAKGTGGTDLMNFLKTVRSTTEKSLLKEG
row,Molecule,pIC50
1,"CCO[C@@H](c1ccc([C@@H](COC)CC(=O)O)cc1Nc1ccc(Cl)cc1)C(F)(F)F (single isomer, unassigned) [Example 79]",8.00
2,"CC[C@@H](CC(=O)O)c1ccc([C@@H](OC)C(F)(F)F)c(Nc2cnc(C)nc2)c1 (single isomer, unassigned) [Example 86]",6.35
3,"CCOc1ncc(Nc2cc([C@@H](CC)CC(=O)O)ccc2[C@@H](OC)C(F)(F)F)cn1 (single isomer, unassigned) [Example 87]",6.89
4,"CC[C@@H](CC(=O)O)c1ccc([C@@H](OC)C(F)(F)F)c(Nc2cnc(C(F)(F)F)nc2)c1 (single isomer, unassigned) [Example 88]",8.00
5,"CCOc1ncc(Nc2cc([C@H](CC)CC(=O)O)ccc2[C@@H](OC)C(F)(F)F)cn1 (single isomer, unassigned) [Example 91]",7.52
6,"CC[C@H](CC(=O)O)c1ccc([C@@H](OC)C(F)(F)F)c(Nc2cnc(C(F)(F)F)nc2)c1 (single isomer, unassigned) [Example 92]",8.00
7,"CC[C@H](CC(=O)O)c1ccc([C@H](OC)C(F)(F)F)c(Nc2cnc(C)nc2)c1 (single isomer, unassigned) [Example 94]",7.15
8,"CC[C@H](CC(=O)O)c1ccc([C@H](OC)C(F)(F)F)c(Nc2cnc(C(F)(F)F)nc2)c1 (single isomer, unassigned) [Example 96]",8.00
9,"CC[C@@H](CC(=O)O)c1ccc([C@H](OC)C(F)(F)F)c(Nc2cnc(C)nc2)c1 (single isomer, unassigned) [Example 98]",6.82
10,"CCOc1ncc(Nc2cc([C@@H](CC)CC(=O)O)ccc2[C@H](OC)C(F)(F)F)cn1 (single isomer, unassigned) [Example 99]",7.52
11,"CC[C@@H](CC(=O)O)c1ccc([C@H](OC)C(F)(F)F)c(Nc2cnc(C(F)(F)F)nc2)c1 (single isomer, unassigned) [Example 100]",8.00
12,"CCOc1ncc(Nc2cc([C@@H](COC)CC(=O)O)ccc2[C@H](CC)N2CCOCC2)cn1 (single isomer, unassigned) [Example 103]",6.70
13,"CC[C@@H](c1ccc([C@@H](COC)CC(=O)O)cc1Nc1ccc(F)cc1)N1CCOCC1 (single isomer, unassigned) [Example 106]",8.00
14,"CCOc1ncc(Nc2cc([C@@H](CC)CC(=O)O)ccc2[C@H](CC)N2CCOCC2)cn1 (single isomer, unassigned) [Example 118-1]",6.12
15,"CCOc1ncc(Nc2cc([C@@H](CC)CC(=O)O)ccc2[C@H](CC)N2CCOCC2)cn1 (single isomer, unassigned) [Example 118-2]",6.37
16,"CCOc1ncc(Nc2cc([C@@H](CC)CC(=O)O)ccc2[C@H](CC)N2CCOCC2)cn1 (single isomer, unassigned) [Example 118-4]",8.00
17,"CCc1ncc(Nc2cc([C@H](CC)CC(=O)O)ccc2[C@@H](CC)N2CCOCC2)cn1 (single isomer, unassigned) [Example 119]",7.70
18,"CC[C@@H](CC(=O)O)c1ccc([C@@H](CC)N2CCOCC2)c(Nc2ccc(C#N)cc2)c1 (single isomer, unassigned) [Example 124]",7.15
19,"CCOc1ncc(Nc2cc([C@H](CC)CC(=O)O)ccc2[C@@H](CC)C2CCOCC2)cn1 (single isomer, unassigned) [Example 125-1]",7.40
20,"CCc1ncc(Nc2cc([C@H](CC)CC(=O)O)ccc2[C@H](CC)C2CCOCC2)cn1 (single isomer, unassigned) [Example 128]",6.92
21,"CC[C@H](CC(=O)O)c1ccc([C@@H](CC)C2CCOCC2)c(Nc2ccc(COC)nc2)c1 (single isomer, unassigned) [Example 129]",6.51
22,"CC[C@@H](CC(=O)O)c1ccc([C@@H](CC)N2CCOCC2)c(Nc2ccc(Cl)cc2)c1 (single isomer, unassigned) [Example 132]",7.15
23,"(S)-3-(3-(3-(4-cyano-3-fluorophenyl)ureido)-4-((R)-1-ethoxy-2,2,2-trifluoroethyl)phenyl)-4-methoxybutanoic acid [Example 63]",7.70

# Same assay, conditions: HeLa cells, IFNγ 25 ng/mL, 48 hour incubation; read-out: IDO Hela IC50 class (A < 50, B < 250, C < 2000)
row,Molecule,pIC50
1,"CCO[C@@H](c1ccc([C@@H](COC)CC(=O)O)cc1Nc1ccc(C#N)cc1)C(F)(F)F (single isomer, unassigned) [Example 80]",> 7.30
2,"CC[C@@H](CC(=O)O)c1ccc([C@@H](OC)C(F)(F)F)c(Nc2ccc(Cl)cc2)c1 (single isomer, unassigned) [Example 83-1]",> 7.30
3,"CC[C@H](CC(=O)O)c1ccc([C@@H](OC)C(F)(F)F)c(Nc2ccc(Cl)cc2)c1 (single isomer, unassigned) [Example 83-2]",> 7.30
4,"CC[C@H](CC(=O)O)c1ccc([C@H](OC)C(F)(F)F)c(Nc2ccc(Cl)cc2)c1 (single isomer, unassigned) [Example 84-1]",> 7.30
5,"CC[C@@H](CC(=O)O)c1ccc([C@H](OC)C(F)(F)F)c(Nc2ccc(Cl)cc2)c1 (single isomer, unassigned) [Example 84-2]",> 7.30
6,"CC[C@@H](CC(=O)O)c1ccc([C@@H](OC)C(F)(F)F)c(Nc2ccc(C#N)cc2)c1 (single isomer, unassigned) [Example 85]",> 7.30
7,"CC[C@H](CC(=O)O)c1ccc([C@H](OC)C(F)(F)F)c(Nc2ccc(C#N)cc2)c1 (single isomer, unassigned) [Example 93]",> 7.30
8,"CC[C@@H](CC(=O)O)c1ccc([C@H](OC)C(F)(F)F)c(Nc2ccc(C#N)cc2)c1 (single isomer, unassigned) [Example 97]",> 7.30
9,"CC[C@@H](c1ccc([C@@H](COC)CC(=O)O)cc1Nc1ccc(C#N)cc1)N1CCOCC1 (single isomer, unassigned) [Example 101-1]",> 7.30
10,"CC[C@H](c1ccc([C@@H](COC)CC(=O)O)cc1Nc1ccc(C#N)cc1)N1CCOCC1 (single isomer, unassigned) [Example 101-2]",5.70 to 6.60
11,"CC[C@@H](c1ccc([C@@H](COC)CC(=O)O)cc1Nc1ccc(COC)nc1)N1CCOCC1 (single isomer, unassigned) [Example 104]",5.70 to 6.60
12,"CCOc1ncc(Nc2cc([C@@H](COC)CC(=O)O)ccc2[C@@H](CC)N2CCOCC2)cn1 (single isomer, unassigned) [Example 108]",5.70 to 6.60
13,"CC[C@H](c1ccc([C@@H](COC)CC(=O)O)cc1Nc1ccc(F)cc1)N1CCOCC1 (single isomer, unassigned) [Example 111]",5.70 to 6.60
14,"CCOc1ncc(Nc2cc([C@@H](CC)CC(=O)O)ccc2[C@H](CC)N2CCOCC2)cn1 (single isomer, unassigned) [Example 118-3]",> 7.30
15,"CCOc1ncc(Nc2cc([C@H](CC)CC(=O)O)ccc2[C@H](CC)C2CCOCC2)cn1 (single isomer, unassigned) [Example 125-2]",> 7.30
16,"CCc1ncc(Nc2cc([C@H](CC)CC(=O)O)ccc2[C@@H](CC)C2CCOCC2)cn1 (single isomer, unassigned) [Example 126-1]",> 7.30
17,"CC[C@H](CC(=O)O)c1ccc([C@@H](CC)C2CCOCC2)c(Nc2ccc(COC)nc2)c1 (single isomer, unassigned) [Example 127]",> 7.30
18,"CC[C@H](CC(=O)O)c1ccc([C@@H](CC)C2CCOCC2)c(Nc2ccc(COC)nc2)c1 (single isomer, unassigned) [Example 129]",6.60 to 7.30
19,"CCO[C@@H](c1ccc([C@@H](COC)CC(=O)O)cc1Nc1cnc(C)nc1)C(F)(F)F [Example 81, (S)-3-(4-((S)-1-ethoxy-2,2,2-trifluoroethyl)-3-((2-methylpyrimidin-5-yl)amino)phenyl)-4-methoxybutanoic Acid]",5.70 to 6.60
20,"(S)-3-(3-(3-(4-cyano-3-fluorophenyl)ureido)-4-((R)-1-ethoxy-2,2,2-trifluoroethyl)phenyl)-4-methoxybutanoic acid [Example 63]",> 7.30
21,"(S)-3-(4-((S)-1-ethoxy-2,2,2-trifluoroethyl)-3-((4-fluorophenyl)amino)phenyl)pentanoic acid [Example 48]",> 7.30

# Target: T2, human IDO1 (Homo sapiens, UniProt P14902)
# T2 construct: expressed in transfected cells
# T2 sequence (P14902 whole entry): as above
# Assay: HEK293 cell-based indoleamine 2,3-dioxygenase (IDO) assay
# Conditions: human IDO1/HEK293 cells, 20 hours; read-out: IDO1 HEK Human IC50 class (A < 50, B < 250, C < 2000)
# Experimental: Assessment of Inhibitor Activity in HEK293 Cell-Based Indoleamine 2,3-Dioxygenase (IDO) Assay
# HEK293 cells were transfected with a pCDNA-based mammalian expression vector harboring human IDO1 cDNA (NM 002164.2) by electroporation. They were cultured in medium (DMEM with 10% FBS) containing 1 mg/ml G418 for two weeks. Clones of HEK293 cells that stably expressed human IDO1 protein were selected and expanded for IDO inhibition assay.
# The human IDO1/HEK293 cells were seeded at 10,000 cells per 50 μL per well with RPMI/phenol red free media contains 10% FBS in a 384-well black wall clear bottom tissue culture plate (Matrix Technologies LLC) 100 nL of certain concentration of compound was then added to each well using ECHO liquid handling systems. The cells were incubated for 20 hours in 37° C. incubator with 5% CO2.
# The compound treatments were stopped by adding trichloroacetic acid (Sigma-Aldrich) to a final concentration at 0.2%. The cell plate was further incubated at 50° C. for 30 minute. The equal volume supernatant (20 μL) and 0.2% (w/v) Ehrlich reagent (4-dimethylaminobenzaldehyde, Sigma-Aldrich) in glacial acetic acid were mixed in a new clear bottom 384-well plate. This plate was then incubated at room temperature for 30 minute. The absorbance at 490 nm was measured on Envision plate reader.
# Compound IC50 values were calculated using the counts of 500 nM of a reference standard treatment as one hundred percent inhibition, and counts of no compound but DMSO treatment as zero percent inhibition.
row,Molecule,pIC50
1,"CCOC(C)(C)c1ccc([C@H](CC)CC(=O)O)cc1NC(=O)Nc1ccc(C)cc1 (single isomer, unassigned) [Example 1]",5.70 to 6.60
